Square brackets hold non-standard residues; d marks the D form. Peptide text beside a SMILES is read from it. * marks the point of attachment. NHiPr = CC(C)N*; OiPr = CC(C)O*
experiment: not given; details: prior art values (U.S. 3,492,131; Mazur et al.; Sukehiro et al.); cited from earlier work

Which “sweetness relative to sucrose” value does the source give for `CC(C)OC(=O)[C@@H](C)NC(=O)[C@@H](N)CC(=O)O` [L-aspartyl-D-alanine isopropyl ester] (H-Asp-[dA]-OiPr) here?
Its value is “up to 125 times sucrose”.

experiment: Sweetness potency: gustatory sweetness compared with sucrose standard by expert taste panel; type: in vivo; details: aqueous solutions compared with 7-9% sucrose
Experimental: The sweetness potency of the instant compounds was determined by comparison of their gustatory sweetnesses with sucrose. Aqueous solutions of the compound of formula (I) diluted to a suitable range of concentrations were compared with a sucrose standard by an expert taste panel. Comparisons were generally made with aqueous sucrose solutions of 7-9%, i.e., 7-9 g. per 100 ml. Higher sucrose concentrations have a distinctive mouthfeel which may influence results and lower sucrose concentration are not indicative of normal use situations. […] All of the sweetness potency values stated herein for the compounds of the invention were determined by this method.

With `C[C@@H](NC(=O)[C@@H](N)CC(=O)O)C(=O)NC(C1CC1)C(C)(C)C` (mixture of isomers) [Example 6, L-Aspartyl-D-alanine N-(dl-t-butylcyclopropylcarbinyl)amide] as the molecule, how does the Sweetness potency read?
The Sweetness potency was 1200 x sucrose.

With `C[C@@H](NC(=O)[C@@H](N)CC(=O)O)C(=O)NC1C(=O)OCC1(C)C` (mixture of isomers) [Example 27, L-Aspartyl-D-alanine N-(DL-2-amino-3,3-dimethyl-4-hydroxybutanoic acid lactone)amide] as the molecule, how does the Sweetness potency read?
Its Sweetness potency is 100 x sucrose.

For `C[C@@H](NC(=O)[C@@H](N)CC(=O)O)C(=O)NC1C(C)(C)CSC1(C)C` (mixture of isomers) [L-Aspartyl-D-alanine N-(2,2,4,4-tetramethyltetrahydrothiophene-3-yl)amide], which Sweetness potency is on record?
The Sweetness potency was 800 x sucrose.

For `CC1CCCC(C)C1NC(=O)[C@@H](C)NC(=O)[C@@H](N)CC(=O)O` (relative stereo) [Example 3], which Sweetness potency is on record?
Its Sweetness potency is 600 x sucrose.

With `CC1CCCCC1NC(=O)[C@@H](C)NC(=O)[C@@H](N)CC(=O)O` (stereo partly drawn) [Example 4, L-Aspartyl-D-alanine N-(2-methycyclohexyl)amide] as the molecule, how does the Sweetness potency read?
Its Sweetness potency is 250 x sucrose.

Which Sweetness potency does the source give for `C[C@@H](NC(=O)[C@@H](N)CC(=O)O)C(=O)NC1C(C)(C)CCC1(C)C` [Example 7, L-Aspartyl-D-alanine N-(2,2,5,5-tetramethylcyclopent-l-yl)amide] here?
The Sweetness potency was 800 x sucrose.

Which Sweetness potency does the source give for `CC1CSCC(C)C1NC(=O)[C@@H](C)NC(=O)[C@@H](N)CC(=O)O` (stereo partly drawn) [Example 12, L-Aspartyl-D-alanine-N-(3,5-dimethyltetrahydrothiopyran-4-yl)amide] here?
Its Sweetness potency is 200 x sucrose.

With `C[C@@H](NC(=O)[C@@H](N)CC(=O)O)C(=O)NC1C(C)(C)SC1(C)C` [Example 16, L-Aspartyl-D-alanine N-(2,2,4,4-tetramethylthietan-3-yl)amide] as the molecule, how does the Sweetness potency read?
Its Sweetness potency is 2000 x sucrose.

With `C[C@@H](NC(=O)[C@@H](N)CC(=O)O)C(=O)NC1C(C)(C)S(=O)(=O)C1(C)C` [Example 17, L-Aspartyl-D-alanine N-(2,2,4,4-tetramethyl-1,1-dioxothietan-3-yl)amide] as the molecule, how does the Sweetness potency read?
The Sweetness potency was 1000 x sucrose.

With `CSC(C)(C)C(NC(=O)[C@@H](C)NC(=O)[C@@H](N)CC(=O)O)C(C)C` (stereo partly drawn) [Example 18, L-Aspartyl-D-alanine N-(2-methylthio-2,4-dimethylpentan-3-yl)amide] as the molecule, how does the Sweetness potency read?
The Sweetness potency was 150 x sucrose.

With `CC[C@@H](NC(=O)[C@@H](N)CC(=O)O)C(=O)NC(C1CC1)C1CC1` [Example 20, L-Aspartyl-D-2-aminobutyric acid N-(dicyclopropylcarbinyl)amide] as the molecule, how does the Sweetness potency read?
The Sweetness potency was 500 x sucrose.

For `CC[C@@H](NC(=O)[C@@H](N)CC(=O)O)C(=O)NC1C(C)(C)S(=O)(=O)C1(C)C` [Example 21, L-Aspartyl-D-2-aminobutyric acid N-(2,2,4,4-tetramethyl-1,1-dioxothietan-3-yl)amide], which Sweetness potency is on record?
Its Sweetness potency is 200 x sucrose.

With `CC[C@@H](NC(=O)[C@@H](N)CC(=O)O)C(=O)NC(C(C)C)C(C)C` [Example 22, L-Aspartyl-D-2-aminobutyric acid N-(2,4-dimethyl-3-pentyl)amide] as the molecule, how does the Sweetness potency read?
The Sweetness potency was 100 x sucrose.

With `CC(C)[C@@H](NC(=O)[C@@H](N)CC(=O)O)C(=O)NC(C1CC1)C1CC1` [Example 23, L-Aspartyl-D-valine N-(dicyclopropylcarbinyl)amide] as the molecule, how does the Sweetness potency read?
The Sweetness potency was 110 x sucrose.

With `CC(C)NC(=O)[C@H](NC(=O)[C@@H](N)CC(=O)O)C(C)C` [Example 24, L-Aspartyl-D-valine N-isopropylamide] (H-Asp-[dV]-NHiPr) as the molecule, how does the Sweetness potency read?
Its Sweetness potency is 1-2 x sucrose.

Which Sweetness potency does the source give for `C[C@@H](NC(=O)[C@@H](N)CC(=O)O)C(=O)NC(C(C)(C)C)C(C)(C)C` [Example 25, L-Aspartyl-D-alanine N-(2,2,4,4-tetramethyl-3-pentyl)amide] here?
The Sweetness potency was 450 x sucrose.

For `CC(C)C(NC(=O)[C@@H](C)NC(=O)[C@@H](N)CC(=O)O)C(C)(C)O` (stereo partly drawn) [Example 26, L-Aspartyl-D-alanine N-(2-hydroxy-2,4-dimethyl-3-pentyl)amide], which Sweetness potency is on record?
Its Sweetness potency is 125 x sucrose.

Which Sweetness potency does the source give for `C[C@@H](NC(=O)[C@@H](N)CC(=O)O)C(=O)NC(C1CC1)C1CC1` [[I, R^a =CH3, R=CH(Δ)2], L-Aspartyl-D-alanine N-(dicyclopropylcarbinyl)amide] here?
Its Sweetness potency is 1200 x sucrose.

For “L-Aspartyl-D-alanine N-(2,2,4,4-tetramethyltetrahydrothiophene-3-yl)amide [Example 14]”, which Sweetness potency is on record?
Its Sweetness potency is 500 x sucrose.

experiment: not given; details: factor used to calculate the theoretical sweetness of the blends; cited from earlier work

Which Sweetness potency factor does the source give for `O=C1NS(=O)(=O)c2ccccc21.[Na]` [sodium saccharin] here?
Its Sweetness potency factor is 300 x sucrose.
